Measured values from patent US20020035097A1, “Method of preventing and treating chemotherapy-induced alopecia” (priority 1991, published 2002).

Tests used:
Format in all cases: in vivo, rat
VP-16-induced alopecia = assay: VP-16 (Etoposide)-induced alopecia in young rats
Method: Twelve 7 day old rats were randomized in two groups. Group I was treated daily with buffer 0.1 ml s.c. for four days. The second Group was treated daily with Vitamin D3 50 μg s.c. over head for four days. After stopping the buffer or Vitamin D3 treatment, all rats received 1.5 mg/kg i.p. of VP-16 (Etoposide) daily for three days.
(§1) 1,25-Dihydroxyvitamin D3 was dissolved in absolute ethanol and applied topically with an applicator. Control animals were similarly treated with the same amount of ethanol. Animals were then kept individually separated for a period of three hours following which the treated area was carefully washed with soap and water and dried. Treatment was given daily beginning on day 5 after birth and ending on day 10.
(§2) All chemotherapies were given I.P. and started at 11 days of age. CTX, 35 mg/kg, was given for one day only. VP-16, 1.5 mg/kg, was given for three days. For CTX and ADM combination, CTX, 25 mg/kg was given for one day and ADM, 2.5 mg/kg, for three days. At these doses neither CTX nor ADM alone will produce alopecia. Alopecia was recorded on the tenth day from beginning chemotherapy.
(§3) A total of 4 experiments were carried out. In the first experiment, protection from Cytoxan-induced alopecia was examined. The experimental group was pretreated with 0.2 μg of 1,25-dihydroxyvitamin D3 in 0.15 ml of absolute ethanol applied topically over the head and neck and the control group received 0.15 ml of alcohol. All 10 rats in the control group became totally alopecic. […] The second experiment was carried out under similar conditions to examine protection from VP-16-induced alopecia. All 10 rats in the control group developed total body alopecia. […] The third experiment was designed to examine protection from alopecia induced by Cytoxan-Adriamycin combination. There were 11 rats in each group. Six rats in the control group developed alopecia over the head and neck and 5 rats developed total body alopecia. […] In the fourth experiment, protection from VP-16-induced alopecia was similarly examined except that the dose of 1,25-dihydroxyvitamin D3 was reduced to 0.1 μg in 0.1 ml absolute ethanol applied topically over the head area only. All 10 rats in the control group became completely alopecic.
as §1, with “RO 23-7553 (1,25 dihydroxy-16-ene-23-yne-cholecalciferol)” for “1,25-Dihydroxyvitamin D3”, “9” for “5”, “14.” for “10.”
On day 15 all animals received VP-16, 1.5 mg/kg i.p., for three days. Alopecia was recorded on day 25.
Thirteen rats were randomized in two groups. Experimental group, 7 rats; control group, 6 rats. The experimental group was pretreated with 1 μg of RO 23-7553 in 0.2 ml absolute ethanol applied topically over the neck and back and the control group received 0.2 ml of absolute ethanol. All six rats in the control group became totally alopecic over the neck and back.

ARA-C-induced alopecia = ARA-C-induced alopecia in young rats
Method: Sprague Dawley rats were purchased from Charles River Laboratories, Wilmington, Mass. Cytosar-U (ARA-C) was from the Upjohn Company, Kalamazoo, Mich. Receptor grade EGF from mouse submaxillary glands, human recombinant EGF, dimethyl sulfoxide (DMSO) and Vitamin D3 were purchased from Sigma Chemical Co., St. Louis, Mo. aFGF was purchased from AMGEN Corp., Thousand Oaks, Calif.
All rats from each experiment were treated with ARA-C 50 mg/kg intraperitoneally (i.p.) daily for 7 days. For subcutaneous (s.c.) injections, EGF and FGF were prepared in PBS 1% BSA. Alopecia was always recorded on day 12 of experiment, and scored as previously described (Hussein et al, Science, 249:1564-1566, 1990; Jimenez et al, FASEB J., 1991).
For topical treatment, murine EGF was prepared as follows: One vial of EGF (100 μg) was dissolved in 0.2 ml of PBS 1% BSA and 0.12 ml of this solution was added to 0.48 of DMSO. Three hours prior to ARA-C injection, 0.1 ml of the EGF-DMSO mixture was applied to each rat over a 1 cm^2 area between the shoulders using a rubber tip applicator. Rats were then kept individually separated for a period of three hours, following which the treated area was carefully washed with soap and water and dried. Treatment was continued for 7 days. Control animals were similarly treated using DMSO without EGF.
Two separate experiments were conducted to test the ability of murine EGF to protect from ARA-C-induced alopecia. In Experiment I, twenty-two 7-day old rats were randomized in two groups of eleven rats each. In addition to ARA-C, Group I received 2 μg of mouse EGF s.c. in the back between the two hind legs 3 hours prior to ARA-C injections daily for 7 days. Group II, received buffer solution similarly and served as control. Ten of eleven rats in Group II developed virtually total body alopecia and one rat developed more than 50% hair loss. In contrast, in Group I, 5 rats had no detectable hair loss and 6 rats had mild hair loss (Table I, Experiment I (FIG. 1)). In Experiment II, twelve 7-day old rats were randomized in two groups of 6 rats each. In addition to ARA-C, Group I received mouse EGF 1 μg s.c. daily for 7 days. Group II received buffer s.c. All 6 rats in Group II developed moderately severe to severe alopecia, whereas in Group I, one rat had no detectable hair loss and 5 rats developed only minimal hair loss (Table I, Experiment II).
For the next experiment, rHu-EGF was used. Twelve 7-day old rats were randomized in two groups of six rats each. In addition to ARA-C, Group I received rHu-EGF 2 μg s.c. in the flank area daily for 7 days. Group II received buffer s.c. All 6 rats in Group II developed total body alopecia, whereas in Group I none of the rats had total body alopecia, one rat had no detectable hair loss, four rats had mild alopecia and one rat had moderate alopecia (Table I, Experiment III, (FIG. 2)).
In the next experiment, twelve 7-day old rats were randomized in two groups of six rats each. Group I, in addition to ARA-C, received murine-EGF 10 μg in DMSO daily×7 days rubbed topically with a cotton tip applicator between the shoulder blades over an area of 1 cm^2. Group II received control solution topically. In Group II, all six rats developed complete body alopecia.
Fourteen 7-day old rats were randomized in two groups. All rats received ARA-C 50 mg/kg/day for seven days. In addition, Group I received aFGF 2 μg s.c. on back of head daily for seven days. Group II received buffer injections and served as controls. Alopecia was recorded on day 12 of experiment. All rats in Group II developed complete body alopecia.

[1] = test system: Cytoxan/Adriamycin-induced alopecia; assay: Cytoxan/Adriamycin combination-induced alopecia in young rats
Method: Eight 4-day old Sprague Dawley rats were randomized in two groups of 4 rats each. Group I, received EGF […] s.c. on the head daily for 7 days. Group II received buffer injections and served as controls. One day after stopping EGF or buffer injections all rats received Cytoxan 25 mg/kg i.p.×1 day and Adriamycin 2.5 mg/kg i.p.×3 days. […] (FIG. 5).
as §1
as §2, with “At these doses neither CTX nor ADM alone will produce alopecia.” left out
as §3, with “alcohol.” for “alcohol. All 10 rats in the control group became totally alopecic.”, “VP-16-induced” for “VP-16-induced alopecia. All 10 rats in the control group developed total body”, “group.” for “group. Six rats in the control group developed alopecia over the head and neck and 5 rats developed total body alopecia.”, “only.” for “only. All 10 rats in the control group became completely alopecic.”

Cytoxan-induced alopecia = Cytoxan-induced alopecia in young rats; conditions: 50 μg daily i.p. or s.c. for 4 days prior to chemotherapy; Cytoxan 32.5 mg/kg single injection; 7 experiments, 89 animals
[2] = Experiment III, 2 μg s.c. in flank daily × 7 days with ARA-C 50 mg/kg i.p. × 7 days, 6 rats, day 12
[3] = Experiment III, 2 μg s.c. in flank daily × 7 days with ARA-C 50 mg/kg i.p. × 7 days, 6 rats, day 12, listed as rHu-ECF
[4] = Experiment I, 2 μg s.c. daily × 7 days, 3 hours prior to ARA-C 50 mg/kg i.p. × 7 days, 11 rats, day 12
[5] = Experiment II, 1 μg s.c. daily × 7 days with ARA-C 50 mg/kg i.p. × 7 days, 6 rats, day 12
[6] = 2μ s.c. on the head daily for 7 days, then Cytoxan 25 mg/kg i.p. × 1 day and Adriamycin 2.5 mg/kg i.p. × 3 days, 4 rats

C=C1/C(=C\C=C2/CCC[C@]3(C)C([C@H](C)CC#CC(C)(C)O)=CC[C@@H]23)C[C@@H](O)C[C@@H]1O [RO 23-7553, 1,25 dihydroxy-16-ene-23-yne-cholecalciferol]
Protection from VP-16-induced alopecia (VP-16-induced alopecia; 1 μg in 0.2 ml absolute ethanol topically over neck and back, day 9 to 14 after birth, VP-16 1.5 mg/kg i.p. for three days from day 15, recorded day 25, 7 rats): all animals in the experimental group were protected

aFGF: aFGF, a fibroblast growth factor, purchased from AMGEN Corp.
Protection from ARA-C-induced alopecia (ARA-C-induced alopecia; 2 μg s.c. on back of head daily for seven days, ARA-C 50 mg/kg/day for seven days, day 12): protected locally at the site of injection

C=C1CC[C@H](O)C/C1=C/C=C1\CCC[C@]2(C)[C@@H]([C@H](C)CCCC(C)C)CC[C@@H]12 [Vitamin D3]
Protection from alopecia (ARA-C-induced alopecia; 50 μg daily i.p. or s.c. for 4 days prior to chemotherapy, ARA-C 50 mg/kg i.p. daily for 7 days, 1 experiment, 8 animals): excellent protection and Yes*
Protection from alopecia ([1]; 50 μg daily i.p. or s.c. for 4 days prior to chemotherapy, Adriamycin 2.5 mg/kg i.p. daily for 3 days plus Cytoxan 25 mg/kg single injection, 6 experiments, 77 animals): excellent protection and Yes*
Protection from alopecia (VP-16-induced alopecia; 50 μg daily i.p. or s.c. for 4 days prior to chemotherapy, VP-16 1.5 mg/kg i.p. daily for 3 days, 2 experiments, 22 animals): excellent protection and Yes*
Protection from VP-16-induced alopecia (VP-16-induced alopecia; 50 μg s.c. over head daily for four days, then VP-16 1.5 mg/kg i.p. daily for three days): protected
Protection from alopecia (Cytoxan-induced alopecia): excellent protection and Yes*

rHu-EGF: human recombinant EGF (Sigma)
Number of rats with alopecia 0 (no detectable alopecia) (ARA-C-induced alopecia; [2]): one
Number of rats with alopecia 1+ (mild, less than 50% hair loss) (ARA-C-induced alopecia; [2]): four
Number of rats with alopecia 2+ (moderately severe, more than 50% hair loss) (ARA-C-induced alopecia; [2]): one
Number of rats with alopecia 3+ (total or virtually total, >90% hair loss) (ARA-C-induced alopecia; [2]): none
Number of rats with alopecia 0 (no detectable alopecia) (ARA-C-induced alopecia; [3]): 1
Number of rats with alopecia 1+ (mild, less than 50% hair loss) (ARA-C-induced alopecia; [3]): 4
Number of rats with alopecia 2+ (moderately severe, more than 50% hair loss) (ARA-C-induced alopecia; [3]): 1
Number of rats with alopecia 3+ (total or virtually total, >90% hair loss) (ARA-C-induced alopecia; [3]): 0

Murine EGF: Receptor grade EGF from mouse submaxillary glands (Sigma) (NSYPGCPSSYDGYCLNGGVCMHIESLDSYTCNCVIGYSGDRCQTRDLRWWELR; Epidermal growth factor; UniProt P01132 977-1029, looked up)
Alopecia after topical treatment (ARA-C-induced alopecia; 10 μg in DMSO daily × 7 days topically between shoulder blades over 1 cm^2, ARA-C 50 mg/kg × 7 days, 6 rats): all rats developed complete body alopecia except where the EGF was applied topically
Number of rats with alopecia 0 (no detectable alopecia) (ARA-C-induced alopecia; [4]): 5
Number of rats with alopecia 1+ (mild, less than 50% hair loss) (ARA-C-induced alopecia; [4]): 6
Number of rats with alopecia 2+ (moderately severe, more than 50% hair loss) (ARA-C-induced alopecia; [4]): 0
Number of rats with alopecia 3+ (total or virtually total, >90% hair loss) (ARA-C-induced alopecia; [4]): 0
Number of rats with alopecia 0 (no detectable alopecia) (ARA-C-induced alopecia; [5]): 1
Number of rats with alopecia 1+ (mild, less than 50% hair loss) (ARA-C-induced alopecia; [5]): 5
Number of rats with alopecia 2+ (moderately severe, more than 50% hair loss) (ARA-C-induced alopecia; [5]): 0
Number of rats with alopecia 3+ (total or virtually total, >90% hair loss) (ARA-C-induced alopecia; [5]): 0
Number of rats with alopecia 0 (no detectable alopecia) (ARA-C-induced alopecia; Experiment II, 1 μg s.c. daily × 7 days with ARA-C 50 mg/kg i.p. × 7 days, 6 rats, day 12, listed as mouse EGF): one
Number of rats with mild alopecia over head and neck [1, 6]: one
Number of rats with minimal alopecia over head and neck [1, 6]: one
Number of rats with no detectable alopecia over head and neck [1, 6]: two
